Test results reported in publication PMC7791843, “Production of 10-methyl branched fatty acids in yeast” (Biotechnology for Biofuels, 2021).

Molecular target: T1, T. curvata BfaA (Thermomonospora curvata, UniProt D1ABB3)
T1 construct: gene Tcur_1573; native gene from genomic DNA (DSMZ), plasmid pNC964 (strain NS1164), crude E. coli cell-free extract
T1 sequence (D1ABB3 1-455): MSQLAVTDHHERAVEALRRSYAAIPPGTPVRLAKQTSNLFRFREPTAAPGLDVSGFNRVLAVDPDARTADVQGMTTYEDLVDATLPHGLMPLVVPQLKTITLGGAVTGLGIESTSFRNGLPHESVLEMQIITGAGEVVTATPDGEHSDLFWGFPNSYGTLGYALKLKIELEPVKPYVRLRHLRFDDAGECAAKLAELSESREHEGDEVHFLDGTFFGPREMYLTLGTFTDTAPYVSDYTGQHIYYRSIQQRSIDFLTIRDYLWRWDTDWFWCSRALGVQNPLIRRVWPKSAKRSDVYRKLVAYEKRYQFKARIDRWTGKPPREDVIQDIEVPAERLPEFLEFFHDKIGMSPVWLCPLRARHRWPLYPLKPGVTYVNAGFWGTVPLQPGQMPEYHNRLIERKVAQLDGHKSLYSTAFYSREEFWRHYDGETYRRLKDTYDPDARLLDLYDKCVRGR
Assay: crude extract assay, GC-FID of 10-methyl fatty acid
Type: biochemical
Settings: 10 mM NADPH, 37 °C, 16 h; heat-inactivated BfaB lysate with 10-methylene acyl chains

NC(=O)C1=CN([C@@H]2O[C@H](COP(=O)(O)OP(=O)(O)OC[C@H]3O[C@@H](n4cnc5c(N)ncnc54)[C@H](OP(=O)(O)O)[C@@H]3O)[C@@H](O)[C@H]2O)C=CC1 [NADPH]
crude extract assay, GC-FID of 10-methyl fatty acid: We detected 10-methylstearic acid production in the presence of NADPH, but not NADH
